This note sets out measurements from US11287433B2, “Methods for in vitro investigating mitochondrial replication dysfunction in a biological sample, kits and uses thereof, therapeutic methods against progeroid-like syndromes or symptoms and screening method for identifying particular protease inhibitor(s) and/or nitroso-redox stress scavenger …” (INSTITUT PASTEUR, priority 2014, dated 2022).

Peptide text beside a SMILES is read from it. * marks the point of attachment. Cbz = O=C(OCc1ccccc1)*

Data set [1] deals with adult primary fibroblasts IMR-90 and BJ. The experiment in a line: Cell survival of primary cells in culture at longer incubation times. The class given is cell-based. Here is the method:
As KSTI (serine protease inhibitor) and MnTBAP (ROS/RNS scavenger) rescue the CS phenotype by 24 h treatment, the inventors assessed cell survival in culture at longer incubation times with either drug. They used doses of the drugs as those affecting CS cells: 100 μg/ml of KSTI and 100 μM MnTBAP on adult primary fibroblasts IMR-90 and BJ (from ATCC repository). […] Additional experiments are ongoing to test the survival at longer incubation times and lower doses of the drug.

In data set [2] the test system is reactive oxygen species (ROS). The experiment in a line: ROS levels by DCFHDA (DCF) fluorescence in fibroblasts. It is filed as cell-based, human. As to conditions: control and UVSS fibroblasts; 24 h. An excerpt: The inventors assessed the relative levels of oxidative stress using the fluorescent probe dichlorofluorescein diacetate (DCFHDA), which prevalently detects reactive oxygen species (ROS)^29. They reported that whereas UV^SS cells display moderate (25%) increase of signal compared to controls, all CS cells are characterized by higher levels (1.6 to 2-fold) of oxidative stress (FIG. 8a), in agreement with a previous finding^30.
(§1) The inventors quantified fluorescence intensities on cells as summarized in Table 1 before and after treatment with MnTBAP (purchased from Millipore) of DCF and of DHR123 per cell (FIGS. 9(a) and (b)), as well as fluorescence intensities of HTRA2 (FIG. 9(c)), HTRA3 (FIG. 9(d)), POLG1 (FIG. 9(e)) per cell.
(§2) Manganase(III)tetrakis(4-benzoic acid)porphyrin (MNTBAP) is a synthetic metalloporphyrin which mimics superoxide dismutase and scavenges ROS and peroxynitrite^32.

A further data set concerns peroxynitrite. The experiment in a line: Peroxynitrite levels by DHR123 fluorescence in fibroblasts. It is filed as cell-based, human. As to conditions: all control and patient cells; 24 h.
Excerpt: High levels of ROS react with nitric oxide (NO), thereby quenching NO and promoting the formation of peroxynitrite (ONOO^−), which is a powerful oxidant and nitration agent^31.
as §1, §2

A further data set deals with HTRA2. The experiment in a line: HTRA2 fluorescence intensity per cell after MnTBAP. The class given is cell-based, human. The procedure:
(§3) Cells plated on slides were fixed with 2% PFA and permeabilized with 0.5% Triton X-100. The slides were incubated in blocking buffer (BSA 5% in PBS) for 1 h then with the primary antibody (POLγ and HTRA3 purchased from SantaCruz Biotechnology, or as available from any other provider) for 1 h at room temperature. A second, fluorescent antibody (goat anti-mouse and goat anti-rabbit Alexa® Fluor 488, Alexa® Fluor 555, conjugated secondary antibodies from Invitrogen or by any other provider), was incubated for 1-2 h at room temperature, and DNA was stained with 10 μg/ml Hoechst.
(§4) Image analysis was carried out using Perkin-Elmer Ultraview RS Nipkow-spinning disk confocal microscope. Three-dimensional reconstruction of all the z-stacks was achieved using the 3D-volume rendering of IMARIS software (Bitplane). A regular fluorescence microscope can also be used, including for fluorescence quantification, although in this last case it will quantify one section of the cell only and not the entire volume; this quantification may be sufficient for comparative studies (normal versus patient cells). Confocal acquisition (even in the absence of spinning disk) in 3D allows quantification of the entire volume, and differences among samples are therefore more robust. […]

The next data set relates to HTRA3. The experiment in a line: HTRA3 fluorescence intensity per cell after MnTBAP. The class given is cell-based, human. Here is the method: as §3
(§5) Image analysis was carried out using Perkin-Elmer Ultraview RS Nipkow-spinning disk confocal microscope. Three-dimensional reconstruction of all the z-stacks was achieved using the 3D-volume rendering of IMARIS software (Bitplane). A regular fluorescence microscope can also be used, including for fluorescence quantification, although in this last case it will quantify one section of the cell only and not the entire volume; this quantification may be sufficient for comparative studies (normal versus patient cells). Confocal acquisition (even in the absence of spinning disk) in 3D allows quantification of the entire volume, and differences among samples are therefore more robust.
as §1

Another data set deals with POLG1. The experiment in a line: POLG1 fluorescence intensity per cell after MnTBAP. The class given is cell-based, human. The settings on record: normal fibroblasts. The procedure:
as §3, §4

The subject of a further data set is mtDNA content. The data set can be described thus: qPCR of mtDNA content after MnTBAP. It is filed as cell-based, human. A general note: In qPCR the cycle at which signal appears reflects the starting amount.
The subject of another data set is ATP synthesis. The data set can be described thus: ATP tests (glycolysis/OXPHOS fraction and total ATP per cell) after MnTBAP. It is filed as cell-based, human.
Data set [3] deals with POLG1 levels. The experiment in a line: POLG1 immunofluorescence in patient fibroblasts after treatment with protease inhibitors. It is filed as cell-based, human. The settings on record: 5 hours. Here is the method:
as §3, §5
The inventors treated fibroblasts from healthy individuals, from UV^SS and from Cockayne syndrome of type I and II (the last being the more severe), with protease inhibitors MG132 (5 μM) and KSTI (100 μg/ml) for 5 hours and then tested for POLG1 levels.

For data set [4], the system named is POLG1 levels. The experiment in a line: POLG1 levels in CSB-silenced HeLa cells after protease inhibitors. The class given is cell-based, human.
The mark [5] stands for this setting: CS type I and type II fibroblasts 359, 797 and 816, MG132 5 μM or KSTI 100 μg/ml.
The mark [6] stands for this setting: CS type I fibroblasts 539 and 548, MG132 5 μM or KSTI 100 μg/ml.
[7] abbreviates: fibroblasts of healthy individuals and of UVSS, MG132 5 μM or KSTI 100 μg/ml.

As to `O=C(O)c1ccc(/C2=C3\C=CC(=N3)/C(c3ccc(C(=O)O)cc3)=c3/cc/c4[n]3[Mn]([Cl])[n]3c2ccc3/C(c2ccc(C(=O)O)cc2)=C2/C=CC(=N2)\C=4c2ccc(C(=O)O)cc2)cc1` [MnTBAP, Manganese (III) tetrakis (4-benzoic acid) porphyrin chloride], the “cell survival (cell number and cell shape)” value in data set [1] (100 μM MnTBAP, continuous treatment by 3 days) is given as “did not show effect on cell survival”. Moreover, the “levels of ROS, measured by DCFHDA” value in data set [2] was “decreased by two thirds”. Moreover, the “levels of peroxynitrite, measured by DHR123” value in the data set with peroxynitrite is listed as “greatly reduced”. Further, the HTRA2 reduction entry in the data set with HTRA2 (UVSS and all CS cells, compared with control cells) is listed as “dramatically higher”. The “levels of serine protease HTRA2” value in the data set on HTRA2 (control cells) is “reduce by one half”. Moreover, the results for the “levels of HTRA3” value in the data set with HTRA3 (CS cells), in the data set on HTRA3 (UVSS cells) and in the data set on HTRA3 (control cells) were “restored control levels of HTRA3”, “did reduce” and “increased the levels of HTRA3”, respectively. Moreover, the “levels of POLG1” value in the data set on POLG1 is listed as “increased levels of POLG1”. Moreover, the mtDNA content entry is “does not change the mtDNA content” in the data set with mtDNA content (control fibroblasts) and “becomes close to the value of controls” in the data set with mtDNA content (patient cells). Moreover, the “glycolytic shift / fraction of ATP produced by mitochondria” value in the data set on ATP synthesis (CS cells, 24 h treatment) is “attenuated”. For the same molecule, the “total ATP levels” value in the data set on ATP synthesis (UVSS and CS cells) is recorded as “remain relatively high”.
Regarding `CC(C)C[C@@H](C=O)NC(=O)[C@H](CC(C)C)NC(=O)[C@H](CC(C)C)NC(=O)OCc1ccccc1` [MG132, benzyl N-[(2S)-4-methyl-1-[[(2S)-4-methyl-1-[[(2S)-4-methyl-1-oxopentan-2-yl]amino]-1-oxopentan-2-yl]amino]-1-oxopentan-2-yl]carbamate] (Cbz-Leu-Leu-Leu-aldehyde), the POLG1 immunofluorescence level entry was “POLG1 levels exceeded those of untreated healthy individuals” with POLG1 levels [3] (setting [5]); “Significant modifications in two CS type I fibroblasts (539 and 548) were not observed” in the data set with POLG1 levels [3] (setting [6]); “increased to levels of healthy individual” in the data set on POLG1 levels [3] (CS type II fibroblasts 177, MG132 5 μM); “increased levels of POLG1 immunofluorescence” in the data set on POLG1 levels [3] (setting [7]). The POLG1 levels entry in the data set with POLG1 levels [4] is “restored normal POLG1 levels”.

B1: KSTI: Kunitz soybean trypsin inhibitor, a natural serine protease inhibitor (protein)
chain: DFVLDNEGNPLENGGTYYILSDITAFGGIRAAPTGNERCPLTVVQSRNELDKGIGTIISSPYRIRFIAEGHPLSLKFDSFAVIMLCVGIPTEWSVVEDLPEGPAVKIGENKDAMDGWFRLERVSDDEFNNYKLVFCPQQAEDDKCGDIGISIDHDDGTRRLVVSKNKPLVVQFQKLDKESL
Take B1: the POLG1 immunofluorescence level result was “POLG1 levels exceeded those of untreated healthy individuals” with POLG1 levels [3] (setting [5]); “Significant modifications in two CS type I fibroblasts (539 and 548) were not observed” in the data set on POLG1 levels [3] (setting [6]); “increased levels of POLG1 immunofluorescence” in the data set on POLG1 levels [3] (setting [7]). For the same molecule, the POLG1 levels result in the data set with POLG1 levels [4] is “restored normal POLG1 levels”. In addition, in data set [1] (100 μg/ml KSTI, continuous treatment by 6 days), the “cell survival (cell number and cell shape)” value is “did not show effect on cell survival”.
